According to ChEMBL document CHEMBL1926563, “Synthesis, antimicrobial, antimycobacterial and structure-activity relationship of substituted pyrazolo-, isoxazolo-, pyrimido- and mercaptopyrimidocyclohepta[b]indoles” (2012):
In brackets after ≈: the same amount, converted by molar mass. Activity calls are given as the source filed them. The rule behind the calls is not given here.

What was measured:
Bacillus subtilis [1] = assay: Antibacterial activity against Bacillus subtilis NCIM 2063 assessed as zone of inhibition at 200 ug/disc after 24 hrs by disk diffusion method; format: functional; conditions: NCIM 2063, 24 h, read-out: DIZ
Fusarium solani [2] = assay: Antifungal activity against Fusarium solani NCIM 1330 assessed as zone of inhibition at 200 ug/disc after 48 hrs by disk diffusion method; format: functional; conditions: NCIM 1330, 48 h, read-out: DIZ
Proteus vulgaris [3] = assay: Antibacterial activity against Proteus vulgaris NCIM 2027 assessed as zone of inhibition at 100 ug/disc after 24 hrs by disk diffusion method; format: functional; conditions: NCIM 2027, 24 h, read-out: DIZ
Klebsiella pneumoniae [4] = assay: Antibacterial activity against Klebsiella pneumoniae NCIM 2957 assessed as zone of inhibition at 200 ug/disc after 24 hrs by disk diffusion method; format: functional; conditions: NCIM 2957, 24 h, read-out: DIZ
Aspergillus niger [5] = assay: Antifungal activity against Aspergillus niger NCIM 596 assessed as zone of inhibition at 200 ug/disc after 48 hrs by disk diffusion method; format: functional; conditions: NCIM 596, 48 h, read-out: DIZ
Bacillus subtilis [6] = assay: Antibacterial activity against Bacillus subtilis NCIM 2063 assessed as zone of inhibition at 100 ug/disc after 24 hrs by disk diffusion method; format: functional; conditions: NCIM 2063, 24 h, read-out: DIZ
Aspergillus niger [7] = assay: Antifungal activity against Aspergillus niger NCIM 596 assessed as zone of inhibition at 100 ug/disc after 48 hrs by disk diffusion method; format: functional; conditions: NCIM 596, 48 h, read-out: DIZ
[8] = system: Mycobacterium tuberculosis; assay: Antimycobacterial activity against Mycobacterium tuberculosis H37Rv after 7 days by resazurin microtiter plate assay; format: functional; conditions: 168 h
Proteus vulgaris [9] = assay: Antibacterial activity against Proteus vulgaris NCIM 2027 assessed as zone of inhibition at 200 ug/disc after 24 hrs by disk diffusion method; format: functional; conditions: NCIM 2027, 24 h, read-out: DIZ
Fusarium solani [10] = assay: Antifungal activity against Fusarium solani NCIM 1330 assessed as zone of inhibition at 100 ug/disc after 48 hrs by disk diffusion method; format: functional; conditions: NCIM 1330, 48 h, read-out: DIZ
Staphylococcus aureus [11] = assay: Antibacterial activity against Staphylococcus aureus NCIM 5021 assessed as zone of inhibition at 200 ug/disc after 24 hrs by disk diffusion method; format: functional; conditions: NCIM 5021, 24 h, read-out: DIZ
Klebsiella pneumoniae [12] = assay: Antibacterial activity against Klebsiella pneumoniae NCIM 2957 assessed as zone of inhibition at 100 ug/disc after 24 hrs by disk diffusion method; format: functional; conditions: NCIM 2957, 24 h, read-out: DIZ
Staphylococcus aureus [13] = assay: Antibacterial activity against Staphylococcus aureus NCIM 5021 assessed as zone of inhibition at 100 ug/disc after 24 hrs by disk diffusion method; format: functional; conditions: NCIM 5021, 24 h, read-out: DIZ
Curvularia lunata [14] = assay: Antifungal activity against Curvularia lunata NCIM 716 assessed as zone of inhibition at 200 ug/disc after 48 hrs by disk diffusion method; format: functional; conditions: NCIM 716, 48 h, read-out: DIZ
Curvularia lunata [15] = assay: Antifungal activity against Curvularia lunata NCIM 716 assessed as zone of inhibition at 100 ug/disc after 48 hrs by disk diffusion method; format: functional; conditions: NCIM 716, 48 h, read-out: DIZ
[16] = system: Mycobacterium tuberculosis; assay: Antimycobacterial activity against Mycobacterium tuberculosis H37Rv at 1.5 to 50 ug/ml after 7 days by resazurin microtiter plate assay; format: functional, organism-based

| Compound | zone of inhibition at 200 µg/disc (Bacillus subtilis [1]) [mm] | zone of inhibition at 200 µg/disc (Fusarium solani [2]) [mm] | zone of inhibition at 100 µg/disc (Proteus vulgaris [3]) [mm] | zone of inhibition at 200 µg/disc (Klebsiella pneumoniae [4]) [mm] | zone of inhibition at 200 µg/disc (Aspergillus niger [5]) [mm] | zone of inhibition at 100 µg/disc (Bacillus subtilis [6]) [mm] | zone of inhibition at 100 µg/disc (Aspergillus niger [7]) [mm] | MIC [8] [µg/mL] | zone of inhibition at 200 µg/disc (Proteus vulgaris [9]) [mm] | zone of inhibition at 100 µg/disc (Fusarium solani [10]) [mm] | zone of inhibition at 200 µg/disc (Staphylococcus aureus [11]) [mm] | zone of inhibition at 100 µg/disc (Klebsiella pneumoniae [12]) [mm] | zone of inhibition at 100 µg/disc (Staphylococcus aureus [13]) [mm] | zone of inhibition at 200 µg/disc (Curvularia lunata [14]) [mm] | zone of inhibition at 100 µg/disc (Curvularia lunata [15]) [mm] | MIC [16] |
| --- | --- | --- | --- | --- | --- | --- | --- | --- | --- | --- | --- | --- | --- | --- | --- | --- |
| O=C1/C(=C/O)CCCc2c1[nH]c1ccccc21 | 27 | 23 | 23 | 26 | 25 | 26 | 23 | 50 (≈ 220 µM) | 25 | 21 | 26 | 24 | 24 | 25 | 24 |  |
| Cc1cccc2c3c([nH]c12)-c1nocc1CCC3 |  |  |  |  |  |  |  | 25 (≈ 105 µM) |  |  |  |  |  |  |  |  |
| c1ccc(-n2ncc3c2-c2[nH]c4ccccc4c2CCC3)cc1 | 26 | 33 | 20 | 24 | 30 | 24 | 26 |  | 23 | 28 | 27 | 21 | 25 | 31 | 29 | inactive |
| O=C1/C(=C/O)CCCc2c1[nH]c1ccc(Cl)cc21 | 32 | 30 | 25 | 30 | 31 | 28 | 25 | 25 (≈ 95.5 µM) | 28 | 29 | 33 | 28 | 31 | 30 | 27 |  |
| Cc1ccc2[nH]c3c(c2c1)CCCc1cnn(-c2ccccc2)c1-3 | 31 | 34 | 21 | 28 | 30 | 29 | 29 |  | 23 | 30 | 30 | 26 | 27 | 31 | 31 | inactive |
| Cc1ccc2c3c([nH]c2c1)-c1nc(O)ncc1CCC3 |  |  |  |  |  |  |  |  |  |  |  |  |  |  |  | inactive |
| Cc1ccc2[nH]c3c(c2c1)CCCc1cnc(S)nc1-3 | 16 | 16 | 10 | 12 | 16 | 14 | 14 | 50 (≈ 178 µM) | 12 | 13 | 15 | 11 | 13 | 20 | 16 |  |
| Cc1cccc2c3c([nH]c12)C(=O)/C(=C/O)CCC3 |  |  |  |  |  |  |  | 50 (≈ 207 µM) |  |  |  |  |  |  |  |  |
| Sc1ncc2c(n1)-c1[nH]c3ccccc3c1CCC2 | 14 | 14 | 8 | 11 | 13 | 12 | 10 |  | 10 | 11 | 13 | 9 | 11 | 16 | 13 | inactive |
| Cc1ccc2c3c([nH]c2c1)-c1nocc1CCC3 |  |  |  |  |  |  |  | 25 (≈ 105 µM) |  |  |  |  |  |  |  |  |
| Cc1ccc2[nH]c3c(c2c1)CCC/C(=C\O)C3=O | 30 | 26 | 22 | 28 | 27 | 28 | 23 | 25 (≈ 104 µM) | 25 | 23 | 29 | 25 | 26 | 28 | 26 |  |
| Cc1ccc2c3c([nH]c2c1)-c1c(cnn1-c1ccccc1)CCC3 |  |  |  |  |  |  |  | 25 (≈ 79.8 µM) |  |  |  |  |  |  |  |  |
| Cc1ccc2[nH]c3c(c2c1)CCCc1c[nH]nc1-3 | 33 | 37 | 24 | 30 | 34 | 31 | 31 | 50 (≈ 211 µM) | 25 | 34 | 32 | 28 | 30 | 36 | 33 |  |
| Oc1ncc2c(n1)-c1[nH]c3ccccc3c1CCC2 | 29 | 16 | 21 | 24 | 15 | 27 | 11 |  | 23 | 13 | 28 | 22 | 25 | 18 | 16 | inactive |
| Cc1cccc2c3c([nH]c12)-c1nc(S)ncc1CCC3 |  |  |  |  |  |  |  | 50 (≈ 178 µM) |  |  |  |  |  |  |  |  |
| Cc1ccc2c3c([nH]c2c1)-c1n[nH]cc1CCC3 |  |  |  |  |  |  |  | 25 (≈ 105 µM) |  |  |  |  |  |  |  |  |
| Cc1ccc2c3c([nH]c2c1)C(=O)/C(=C/O)CCC3 |  |  |  |  |  |  |  |  |  |  |  |  |  |  |  | inactive |
| c1ccc2c3c([nH]c2c1)-c1nocc1CCC3 | 29 | 31 | 24 | 27 | 29 | 26 | 26 |  | 25 | 28 | 27 | 25 | 26 | 30 | 28 | inactive |
| Cc1ccc2[nH]c3c(c2c1)CCCc1conc1-3 | 32 | 34 | 26 | 29 | 31 | 30 | 28 | 50 (≈ 210 µM) | 28 | 31 | 31 | 26 | 29 | 32 | 29 |  |
| Cc1cccc2c3c([nH]c12)-c1c(cnn1-c1ccccc1)CCC3 |  |  |  |  |  |  |  | 25 (≈ 79.8 µM) |  |  |  |  |  |  |  |  |
| Cc1ccc2c3c([nH]c2c1)-c1nc(S)ncc1CCC3 |  |  |  |  |  |  |  | 50 (≈ 178 µM) |  |  |  |  |  |  |  |  |
| Cc1cccc2c3c([nH]c12)-c1n[nH]cc1CCC3 |  |  |  |  |  |  |  | 25 (≈ 105 µM) |  |  |  |  |  |  |  |  |
| Cc1ccc2[nH]c3c(c2c1)CCCc1cnc(O)nc1-3 | 24 | 19 | 19 | 23 | 18 | 21 | 15 | 50 (≈ 188 µM) | 21 | 14 | 25 | 21 | 23 | 21 | 18 |  |
| Cc1cccc2c3c([nH]c12)-c1nc(O)ncc1CCC3 |  |  |  |  |  |  |  |  |  |  |  |  |  |  |  | inactive |
